Laboratory results published in PubChem BioAssay (NCI).
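A five-concentration, 48-hour dose response in 96-well plates underlies each endpoint, interpolated linearly between surrounding concentrations. TGI: total growth inhibition.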

Legend:
Test in all cases: DTP human tumour cell line panel, 48 h
[1] = tested on: 786-0 renal
[2] = tested on: A498 renal
[3] = tested on: A549 NSCLC
[4] = tested on: ACHN renal
[5] = tested on: CAKI-1 renal
[6] = tested on: COLO 205 colon
[7] = tested on: DLD-1 colon
[8] = tested on: DMS 114 small cell lung
[9] = tested on: DMS 273 small cell lung
[10] = tested on: EKVX NSCLC
[11] = tested on: HCC-2998 colon
[12] = tested on: HCT-116 colon
[13] = tested on: HCT-15 colon
[14] = tested on: HOP-18 NSCLC
[15] = tested on: HOP-62 NSCLC
[16] = tested on: HT29 colon
[17] = tested on: IGROV1 ovarian
[18] = tested on: K-562 leukemia
[19] = tested on: KM12 colon
[20] = tested on: KM20L2 colon
[21] = tested on: LOX IMVI melanoma
[22] = tested on: LXFL 529 NSCLC
[23] = tested on: M14 melanoma
[24] = tested on: MALME-3M melanoma
[25] = tested on: MOLT-4 leukemia
[26] = tested on: NCI-H226 lung
[27] = tested on: NCI-H23 lung
[28] = tested on: NCI-H460 lung
[29] = tested on: NCI-H522 lung
[30] = tested on: OVCAR-3 ovarian
[31] = tested on: OVCAR-4 ovarian
[32] = tested on: OVCAR-5 ovarian
[33] = tested on: OVCAR-8 ovarian
[34] = tested on: RPMI-8226 leukemia
[35] = tested on: RXF 393 renal
[36] = tested on: RXF-631 renal
[37] = tested on: SF-268 CNS
[38] = tested on: SF-295 CNS
[39] = tested on: SF-539 CNS
[40] = tested on: SK-MEL-2 melanoma
[41] = tested on: SK-MEL-28 melanoma
[42] = tested on: SK-MEL-5 melanoma
[43] = tested on: SN12C renal
[44] = tested on: SNB-19 CNS
[45] = tested on: SNB-75 CNS
[46] = tested on: SR leukemia
[47] = tested on: SW-620 colon
[48] = tested on: TK-10 renal
[49] = tested on: U251 CNS
[50] = tested on: UACC-257 melanoma
[51] = tested on: UACC-62 melanoma
[52] = tested on: UO-31 renal

Measured: TGI

O=C1c2ccccc2C(=O)c2nc3c(O)cccc3cc21
20.7 µM: [8]
32.4 µM: [50]
19.4 µM: [12]
18.5 µM: [42]
52.9 µM: [16]
4.98 µM: [30]
27.9 µM: [23]
72.2 µM: [29]
74.1 µM: [38]
23 µM: [25]
64.2 µM: [2]
> 100 µM: all other assays above
